We go through one compound from ChEMBL document CHEMBL5727152, “Ethyldiamine orexin receptor antagonists” (2018).

pIC50: −log10 of the molar value.

In general, pIC50 refers to −log10 of the IC50, conventionally taken in molar units.

In the assay the target is T1, Orexin receptor type 2 (Homo sapiens, UniProt O43614).
T1 sequence (O43614 whole entry): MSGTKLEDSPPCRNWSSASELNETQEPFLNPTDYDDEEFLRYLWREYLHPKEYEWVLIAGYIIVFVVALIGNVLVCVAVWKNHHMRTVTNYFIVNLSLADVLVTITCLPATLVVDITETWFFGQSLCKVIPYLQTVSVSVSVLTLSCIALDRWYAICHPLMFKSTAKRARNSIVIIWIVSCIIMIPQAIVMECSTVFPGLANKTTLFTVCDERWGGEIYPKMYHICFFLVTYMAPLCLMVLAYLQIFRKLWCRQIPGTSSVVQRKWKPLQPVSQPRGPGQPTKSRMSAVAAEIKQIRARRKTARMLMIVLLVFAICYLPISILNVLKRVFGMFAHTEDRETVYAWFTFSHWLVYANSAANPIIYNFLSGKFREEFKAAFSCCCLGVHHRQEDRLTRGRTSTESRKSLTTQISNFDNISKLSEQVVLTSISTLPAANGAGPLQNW
Kind of assay: FLIPR Ca2+ Flux Assay: In a typical experiment the OX1 and OX2 receptor antagonistic activity of the compounds of the present invention was determined in accordance with the following experimental method. For intracellular calcium measurements, Chinese hamster ovary (CHO) cells expressing the rat orexin-1 receptor or the human orexin-2 receptor, are grown in Iscove's modified DMEM containing 2 mM L-glutamine, […], 1% hypoxanthine-thymidine supplement, 100 U/ml penicillin, 100 μg/ml streptomycin and 10% heat-inactivated fetal calf serum (FCS). The cells are seeded at 20,000 cells/well into Becton-Dickinson black 384-well clear bottom sterile plates coated with poly-D-lysine. All reagents were from GIBCO-Invitrogen Corp. The seeded plates are incubated overnight at 37° C. and 5% CO2. Ala-6,12 human orexin-A as the agonist is prepared as a 1 mM stock solution in 1% bovine serum albumin (BSA) and diluted in assay buffer (HBSS containing 20 mM HEPES, 0.1% BSA and 2.5 mM probenecid, pH7.4) for use in the assay at a final concentration of 70 pM. Test compounds are prepared as 10 mM stock solution in DMSO, then diluted in 384-well plates, first in DMSO, then assay buffer. On the day of the assay, cells are washed 3 times with 100 μl assay buffer and then incubated for 60 min (37° C., 5% CO2) in 60 μl assay buffer containing 1 μM Fluo-4AM ester, 0.02% pluronic acid, and 1% BSA. […]. The assay is classed as cell-based.

For `CN(CCN(CC(F)(F)F)C(=O)c1ccccc1-n1nccn1)c1cc(C#N)ccn1`, the pIC50 was 6.95.
